# Measurements as given in patent US7375086B2, “Modulators of Nod2 signaling” (The Regents of the University of Michigan, priority 2000, dated 2008).
# “Also recorded” adds a separate entry of the source.
# Assays:
# [1] = target: T1, Nod2 (Homo sapiens, UniProt Q9HC29, R703H); experiment: NF-κB reporter assay in HEK293T/HEK293 cells expressing Nod2; assay type: cell-based
# T1 construct: ligated to generate an unique cDNA containing the entire open reading frame of Nod2; expressed in transfected cells; host or cells: HEK293T
# T1 sequence (Q9HC29 whole entry R703H): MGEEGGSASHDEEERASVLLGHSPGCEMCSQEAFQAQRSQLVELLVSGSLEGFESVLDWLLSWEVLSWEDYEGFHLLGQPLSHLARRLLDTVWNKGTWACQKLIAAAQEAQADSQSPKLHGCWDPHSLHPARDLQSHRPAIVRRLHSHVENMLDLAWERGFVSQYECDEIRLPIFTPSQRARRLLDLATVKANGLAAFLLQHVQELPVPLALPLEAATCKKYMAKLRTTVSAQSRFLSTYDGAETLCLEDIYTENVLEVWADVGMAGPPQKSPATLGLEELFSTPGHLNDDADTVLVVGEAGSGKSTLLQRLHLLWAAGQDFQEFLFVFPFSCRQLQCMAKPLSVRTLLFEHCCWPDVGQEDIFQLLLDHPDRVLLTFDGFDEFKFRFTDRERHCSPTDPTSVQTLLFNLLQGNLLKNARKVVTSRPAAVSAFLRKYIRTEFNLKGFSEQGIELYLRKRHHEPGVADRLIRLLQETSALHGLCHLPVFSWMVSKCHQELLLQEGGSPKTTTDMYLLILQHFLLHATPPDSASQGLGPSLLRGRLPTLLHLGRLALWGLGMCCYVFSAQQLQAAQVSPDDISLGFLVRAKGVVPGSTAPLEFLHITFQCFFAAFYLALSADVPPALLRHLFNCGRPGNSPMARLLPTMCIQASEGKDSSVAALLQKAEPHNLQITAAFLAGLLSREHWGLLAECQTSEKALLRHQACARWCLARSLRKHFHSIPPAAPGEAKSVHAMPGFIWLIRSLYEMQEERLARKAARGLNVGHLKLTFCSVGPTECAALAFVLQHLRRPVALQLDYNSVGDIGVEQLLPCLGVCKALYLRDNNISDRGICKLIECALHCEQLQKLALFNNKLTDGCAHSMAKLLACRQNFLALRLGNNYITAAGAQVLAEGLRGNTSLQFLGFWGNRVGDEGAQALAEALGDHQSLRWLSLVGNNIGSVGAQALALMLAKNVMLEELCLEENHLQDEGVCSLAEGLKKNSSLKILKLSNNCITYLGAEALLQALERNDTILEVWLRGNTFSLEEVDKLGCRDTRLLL
# [2] = target: T2, P268S NOD2 (Homo sapiens, UniProt Q9HC29, P268S); experiment: NF-κB reporter assay in HEK293T cells expressing P268S NOD2; assay type: cell-based; conditions: 100 ng/ml MDP
# T2 construct: expressed in transfected cells; host or cells: HEK293T
# T2 sequence (Q9HC29 whole entry P268S): as the sequence (Q9HC29 whole entry R703H) above, with P268S, H703R counted along it
# Description: (§1) HEK293T cells were transfected with 0.3 μg of pMX-puro expressing normal Nod2 or mutants carrying P268S (SEQ ID NOs:56 (nucleic acid) and 57 (amino acid), P268S/R702W (SEQ ID NOs: 57 (nucleic acid) and 58 (amino acid)), P268S/G908 (SEQ ID NOs: 60 (nucleic acid) and 61 (amino acid)), P268S/L1007fsinsC (SEQ ID NOs: 54 (nucleic acid) and 55 (amino acid)) or empty plasmid (−). Eight hours post-transfection, 100 ng/ml MDP was added to the cultured cells and at 24 hours post-transfection NF-κB activity was determined as described in FIG. 1A. Values represent the normalized mean data ±S.D. of triplicate cultures. The results shown are representative of three separate experiments.
# [3] = target: T3, P268S/R702W NOD2 (Homo sapiens, UniProt Q9HC29, P268S/R702W); experiment: NF-κB reporter assay in HEK293T cells expressing P268S/R702W NOD2; assay type: cell-based; conditions: 100 ng/ml MDP
# T3 construct: expressed in transfected cells; host or cells: HEK293T
# T3 sequence (Q9HC29 whole entry P268S/R702W): as the sequence (Q9HC29 whole entry R703H) above, with P268S, R702W, H703R counted along it
# Description: as §1
# [4] = target: T4, P268S/G908R NOD2 (Homo sapiens, UniProt Q9HC29, G908R/P268S); experiment: NF-κB reporter assay in HEK293T cells expressing P268S/G908R NOD2; assay type: cell-based; conditions: 100 ng/ml MDP
# T4 construct: expressed in transfected cells; host or cells: HEK293T
# T4 sequence (Q9HC29 whole entry P268S/G908R): as the sequence (Q9HC29 whole entry R703H) above, with P268S, H703R, G908R counted along it
# Description: as §1
# [5] = target: T5, P268S/L1007fsinsC NOD2 (Homo sapiens, UniProt Q9HC29, P268S); experiment: NF-κB reporter assay in HEK293T cells expressing P268S/L1007fsinsC NOD2; assay type: cell-based; conditions: 100 ng/ml MDP
# T5 construct: expressed in transfected cells; host or cells: HEK293T
# T5 sequence (Q9HC29 with tags, fused parts or gaps P268S): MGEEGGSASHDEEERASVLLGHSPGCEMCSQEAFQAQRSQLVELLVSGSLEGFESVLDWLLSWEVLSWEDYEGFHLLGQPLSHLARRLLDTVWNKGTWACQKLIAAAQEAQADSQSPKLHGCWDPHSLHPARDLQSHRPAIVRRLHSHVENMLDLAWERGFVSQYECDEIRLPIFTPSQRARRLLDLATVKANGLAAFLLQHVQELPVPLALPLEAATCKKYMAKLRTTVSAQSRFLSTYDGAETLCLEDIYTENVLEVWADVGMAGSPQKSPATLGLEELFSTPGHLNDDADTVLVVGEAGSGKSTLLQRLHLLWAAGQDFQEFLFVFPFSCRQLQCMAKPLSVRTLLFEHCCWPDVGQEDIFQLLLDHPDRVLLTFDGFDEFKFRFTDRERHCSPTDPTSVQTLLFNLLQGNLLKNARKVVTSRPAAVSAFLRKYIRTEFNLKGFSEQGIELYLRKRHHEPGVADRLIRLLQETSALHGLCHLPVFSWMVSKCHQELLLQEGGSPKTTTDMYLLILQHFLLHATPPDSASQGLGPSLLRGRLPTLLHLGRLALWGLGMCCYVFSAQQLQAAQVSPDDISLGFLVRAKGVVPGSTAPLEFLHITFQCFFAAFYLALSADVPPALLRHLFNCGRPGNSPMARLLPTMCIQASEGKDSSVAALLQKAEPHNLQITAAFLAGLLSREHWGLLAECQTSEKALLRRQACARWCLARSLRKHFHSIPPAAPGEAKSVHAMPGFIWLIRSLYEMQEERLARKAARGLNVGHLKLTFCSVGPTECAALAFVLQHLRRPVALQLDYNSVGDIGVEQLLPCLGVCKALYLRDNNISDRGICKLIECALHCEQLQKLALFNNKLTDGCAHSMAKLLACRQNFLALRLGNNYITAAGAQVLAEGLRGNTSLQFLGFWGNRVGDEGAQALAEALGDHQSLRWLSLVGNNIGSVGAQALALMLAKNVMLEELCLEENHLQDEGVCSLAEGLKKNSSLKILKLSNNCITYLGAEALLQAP
# Description: as §1
# [6] = system: NF-κB; experiment: NF-κB binding activity by EMSA in nuclear extracts of PBMNC; assay type: cell-based, human; conditions: 1 μg/ml LPS from Salmonella typhimurium, 10 ng/ml MDP, 1 hour; for response of PBMNC (NF-κB-DNA complex, EMSA): PBMNC from individuals homozygous for L1007fsinsC
# Description: (§2) FIGS. 20C and D show PBMNC analyzed for expression of IL-1β (C) and A1 (D) transcripts by quantitative RT-PCR.
# (§3) Genotyping was performed using a ddNTP primer extension system. Nuclear extracts from LPS-stimulated cells were pre-incubated with antibody specific for p50 subunit of NF-κB to monitor the size of the NF-κB-DNA complex. cDNA was amplified with specific primers for human IL-1β, glyceraldehyde-3-phosphate-dehydrogenase (GAPDH) as described (5) and A1 (5′-[…]-3′ (SEQ ID NO: 53) and 5′-[…]-3′ (SEQ ID NO:54)). The levels of IL-1β and A1 transcripts normalized to that of GAPDH were expressed relative to those in untreated cells that were considered as baseline. Specificity of the desired PCR products was determined by melting curve analysis. Histograms represent the mean ±S.D. of triplicate analyses.
# The NOD2 variants associated with Crohn's disease, R702W, G908R and L1007fsinsC, occur on the same haplotype background, which includes the common P268S polymorphism (Hugot et al., Nature 411:599 [2001]; Ogura et al., Nature 411:603 [2001]). To compare the ability of normal and mutant NOD2 proteins to induce NF-κB activity in response to MDP, the NOD2 proteins were expressed in cells and evaluated in a functional assay. […] The role of NOD2 in the recognition of MDP by primary cells from normal and Crohn's disease patients was next determined. A panel of healthy and Crohn's disease individuals were genotyped for the disease-associated NOD2 alleles and two individuals (one without clinical evidence of disease and one individual with Crohn's disease) who were homozygous for the loss-of-function L1007fsinsC mutation were identified (FIG. 20A). The identification of apparently healthy individuals homozygous for L1007fsinsC is expected in that the penetrance of the L1007fsinsC mutation is not complete (Hugot et al., supra; Ogura et al., supra; Hampe et al., Lancet 357:1925 [2001]; Ahmad et al., Gastroenterology 122:854 [2002]). Peripheral blood mononuclear cells (PBMNC) that are known to express NOD2 were isolated, incubated with MDP or LPS and NF-κB activation was assessed in nuclear extracts by an electrophoretic mobility shift assay (EMSA).
# [7] = system: IL-1β mRNA; experiment: Quantitative RT-PCR of IL-1β transcripts in PBMNC; assay type: cell-based, human; conditions: normal or heterozygous NOD2 alleles, LPS 1 μg/ml, MDP 10 ng/ml
# Description: as §2, §3
# (§4) To further assess NF-κB activation, the mRNA levels of EL-1β and A1, two NF-κB target genes expressed in PBMNC (Cogswell et al., J. Immunol. 153:712 [1994]; Zong et al., Genes Dev. 13:384 [1999]), were evaluated by quantitative real-time polymerase-chain reaction (RT-PCR) analysis. Both IL-1β and A1 mRNA levels were induced by incubation with LPS and MDP in cells from individuals carrying normal or heterozygous NOD2 alleles (FIG. 20C and 20D). […] Thus, PBMNC require the expression of normal NOD2 for their response to MDP but not to LPS.
# [8] = system: A1 mRNA; experiment: Quantitative RT-PCR of A1 transcripts in PBMNC; assay type: cell-based, human; conditions: LPS 1 μg/ml, MDP 10 ng/ml
# Description: as §2, §3, §4
compound,measurement,setting,value
"CC(=O)N[C@@H]1[C@@H](O[C@H](C)C(=O)N[C@@H](C)C(=O)N[C@H](CCC(=O)O)C(N)=O)[C@H](O)[C@@H](CO)O[C@H]1O [MDP, MurNAc-L-Ala-D-isoGln]",NOD2-dependent stimulation of NF-κB by synthetic muropeptides,"[1]; HEK293T cells, 66 ng pMX-puro-NOD2 (FIG. 18B)",induced potent stimulation of NOD2; also recorded: induced Nod2-dependent activation of NF-κB
same,"NF-κB activation in response to MDP, normal NOD2","[1]; HEK293T cells, 100 ng/ml MDP",induced similar levels of NF-κB activation
same,stimulation of NOD2 activity,"[1]; HEK293 cells, 0.3 ng pcDNA3-Nod2, MDP 100 ng/ml, sBLP 1000 ng/ml (FIG. 18D)",stimulated NOD2 activity
same,"NF-κB activation in response to MDP, P268S NOD2",[2],induced similar levels of NF-κB activation
same,"NF-κB activation in response to MDP, P268S/R702W variant compared to normal NOD2",[3],greatly reduced levels of NF-κB activation; also recorded: retained some ability to respond
same,"NF-κB activation in response to MDP, P268S/G908R variant compared to normal NOD2",[4],greatly reduced levels of NF-κB activation
same,"NF-κB activation in response to MDP, P268S/L1007fsinsC variant compared to normal NOD2",[5],greatly reduced levels of NF-κB activation; also recorded: did not respond at all
same,induction of the NF-κB-DNA complex (EMSA),[6]; PBMNC from individuals carrying normal or heterozygous NOD2 alleles,resulted in induction of the NF-κB-DNA complex
same,"response of PBMNC (NF-κB-DNA complex, EMSA)",[6],but not to MDP
same,"response of PBMNC (NF-κB-DNA complex, EMSA)",[6]; listed as muramyl dipeptide,defective in their response
same,IL-1β mRNA levels,[7],induced
same,A1 mRNA levels,[8]; homozygous for L1007fsinsC,but not MDP
same,A1 mRNA levels,[8]; normal or heterozygous NOD2 alleles,induced
